Measured values published in patent US10093673B2, “Tetracyclic pyridone compounds as antivirals” (Novartis AG, priority 2016, dated 2018).
Values after ≈ are worked out from the molar mass of the structure shown. Read-outs that look alike come from different tables or passages of the source.

Tests used:
HBsAg secretion = assay: HBsAg assay (ELISA of secreted HBsAg, HepG2-Clone42 cells); type: cell-based, HBV
Experimental: HepG2-Clone42, a Tet-inducible HBV-expressing cell line with a stably integrated 1.3mer copy of the HBV ayw strain, was generated based on the Tet-inducible HepAD38 cell line with slight modifications. Ladner S K, et al., Antimicrobial Agents and Chemotherapy. 41(8):1715-1720 (1997). HepG2-Clone42 cells were cultured in DMEM/F-12+Glutamax™ (Life Technologies, Carlsbad, Calif., USA), supplemented with 10% fetal bovine serum (Life Technologies), G-418 (Corning, Manassas, Va., USA) at a final concentration of 0.5 mg/mL, and 5 μg/mL Doxycycline (Sigma, St. Louis, Mo., USA) and maintained in 5% CO2 at 37° C.
HepG2-Clone42 cells were seeded in into black clear-bottom 96-well plates at a concentration of 6.0×10^4 cells/well. 24 hours post-seeding, the cells were treated with 200 μl/well of media containing five-fold serial dilutions of compounds in DMSO. DMSO alone was used as the no drug control. The final DMSO concentration in all wells was 0.5%.
The HBsAg ELISA kit (Alpha Diagnostic International, San Antonio, Tex., USE, Catalog #4110) was used to determine the level (semi-quantitative) of secreted HBV sAg.
The HBSAg ELISA assay was performed following the manufacturer's protocol as described.
Step 1. Pipet 100 μL each of compound or DMSO treated samples into HBsAg ELISA plates. Seal plates and incubate at room temp for 60 minutes.
Step 2. Aspirate samples and wash three times with Wash Buffer. Dispense 100μ of antibody-HRP conjugate to each well. Incubate at room temp for 30 minutes.
Step 3. Aspirate samples and wash three times with Wash Buffer. Add 100 μL of TMB Substrate to all wells and incubate 15 minutes at room temp.
Step 4. Dispense 100 μL of Stop Solution to each well. Measure absorbance of ELISA plate at 450 nm.
EC50 values were determined as follows: • 1. Determine the percent of HBsAg secretion inhibition. Calculate the percent inhibition on of HBsAg secretion inhibition using the following equation: 100×(XC−MB)/(MD−MB) • where XC is the absorbance signal from compound-treated well; MB is average absorbance signal (background signal) for column 12 (no cells+HBsAg ELISA sample buffer) and MD is average absorbance signal from DMSO-treated wells. Then calculate EC50 values by non-linear regression using a four parameter curve logistic equation. The curve fit model employed is XLFit Dose Response One Site Model 204: y=(A+((B−A)/(1+(10^((C−x)*D))))) where A is the minimum y value, B is the maximum y value, C is the log EC50 value, and D is the slope factor. High Throughput Solubility Measurement • 1. Transfer 20 ul of 10 mM DMSO stock solution into a 96 deep well plate labeled as […] and 5 ul to another plate labeled as compound standard plate. • 2. Place the buffer plate in a Multi-Tainer MT-4 container (FTS Systems). Freeze dry overnight to remove DMSO. • 3. Add 100 ul of Cl-free PBS (pH 6.8) to the dried compound in the buffer plate and 95 ul of DMSO to the standard plate. • 4. The buffer plate is be sonicated in a water bath for 10 min. • 5. The two plates are then placed onto the VWR orbital shaker to equilibrate for 24 hours at room temperature. • 6. The buffer plate is centrifuged at 4000 rpm for 30 min. • 7. Transfer 10 ul aliquots of supernatant from the buffer plate to a sample plate and dilute 5 fold. • 8. Inject both compound standard and sample into the UPLC/UV/CLND/MS to generate multi detector qualitative and quantitive analytical data. • 9. Data was processed with Xcalibur. CLND equimolar response was used for measuring compound concentration of DMSO solution. UV270 nm or MS relative ratio was used for solubility determination.

[1] = Pharmacokinetics in mice (iv and PO); type: in vivo; conditions: for Cmax / Tmax / AUC / clearance / bioavailability / Vd: mouse, in vivo; for bioavailability: read-out: Oral BA (% F); for Vd: read-out: Vss
[2] = High throughput solubility measurement in PBS; type: physicochemical; conditions: Cl-free PBS, aqueous buffer, thermodynamic from solid; PBS (phosphate-buffered saline), pH 6.8, 24 hours at room temperature
Source text: The following table provides data for solubility of compounds of the invention in PBS (phosphate-buffered saline), using a standard solubility screening method.

[3] = Pharmacokinetics in dog (iv and PO); type: in vivo; conditions: for Cmax / Tmax / AUC / clearance / bioavailability / Vd: in vivo; for bioavailability: read-out: Oral BA (% F); for Vd: read-out: Vss
[4] = Pharmacokinetics in rat (iv and PO); type: in vivo; conditions: for Cmax / Tmax / AUC / clearance / bioavailability / Vd: in vivo; for bioavailability: read-out: Oral BA (% F); for Vd: read-out: Vss
[5] = Hepatitis B virus, read-out: HBsAg EC50, HepG2-Clone42 cells, HBsAg secretion reduced 50% vs DMSO control
[6] = read-out: HBsAg EC50, HepG2-Clone42 cells, HBsAg secretion reduced 50% vs DMSO control

COCCCOc1cc2c(cc1Cl)-c1cc(=O)c(C(=O)O)cn1[C@@H]1[C@H]2CCC1(C)C [Compound 5.2, (3aR,12bS)-10-chloro-11-(3-methoxypropoxy)-3,3-dimethyl-7-oxo-1,2,3,3a,7,12b-hexahydrocyclopenta[c]pyrido[2,1-a]isoquinoline-6-carboxylic acid]
EC50 (HBsAg secretion; [5]): 0.1 nM

COCCCOc1cc2c(cc1Cl)-c1cc(=O)c(C(=O)O)cn1[C@H]1[C@@H]2CCC1(C)C (stereo in doubt) [Compound 5.1, (3aS,12bR)-10-chloro-11-(3-methoxypropoxy)-3,3-dimethyl-7-oxo-1,2,3,3a,7,12b-hexahydrocyclopenta[c]pyrido[2,1-a]isoquinoline-6-carboxylic acid]
EC50 (HBsAg secretion; [5]): 6 nM

COCCCOc1cc2c(cc1OC)-c1c(F)c(=O)c(C(=O)O)cn1[C@H]1[C@@H]2OCC1(C)C [Compound 7.1, (3aR,12bR)-8-fluoro-10-methoxy-11-(3-methoxypropoxy)-3,3-dimethyl-7-oxo-3,3a,7,12b-tetrahydro-2H-furo[3,2-c]pyrido[2,1-a]isoquinoline-6-carboxylic acid]
EC50 (HBsAg secretion; [5]): 0.8 nM

COCCCOc1cc2c(cc1OC)-c1cc(=O)c(C(=O)O)cn1[C@H]1[C@@H]2CCC1(C)C [Compound 1.1, (3aS,12bR)-10-methoxy-11-(3-methoxypropoxy)-3,3-dimethyl-7-oxo-1,2,3,3a,7,12b-hexahydrocyclopenta[c]pyrido[2,1-a]isoquinoline-6-carboxylic acid]
T1/2term. [1]: 1.6 h
Cmax ([1]; PO 2.0 mg/kg): 570 nM
Tmax ([1]; PO 2.0 mg/kg): 0.5 h
AUC ([1]; PO 2.0 mg/kg, read-out: AUC PO): 1.7 µM·h
clearance ([1]; iv 1.0 mg/kg): 24.6 mL/min/kg
bioavailability ([1]; iv 1.0 mg/kg, PO 2.0 mg/kg): 59%
AUC ([1]; iv 1.0 mg/kg, read-out: AUC iv): 1.5 µM·h
Vd ([1]; iv 1.0 mg/kg): 3.6 L/kg
solubility at 24 h [2]: 2400 µM (≈ 1030 µg/mL)
T1/2term. [3]: 5.9 h
Cmax ([3]; PO 1.0 mg/kg): 1900 nM
Tmax ([3]; PO 1.0 mg/kg): 0.22 h
AUC ([3]; PO 1.0 mg/kg, read-out: AUC PO): 5.7 µM·h
clearance ([3]; iv 0.5 mg/kg): 6.4 mL/min/kg
bioavailability ([3]; iv 0.5 mg/kg, PO 1.0 mg/kg): 93%
AUC ([3]; iv 0.5 mg/kg, read-out: AUC iv): 3.1 µM·h
Vd ([3]; iv 0.5 mg/kg): 1.7 L/kg
EC50 (HBsAg secretion; [5]): 0.1 nM
T1/2term. [4]: 2.4 h
Cmax ([4]; PO 2.0 mg/kg): 1720 nM
Tmax ([4]; PO 2.0 mg/kg): 1.33 h
AUC ([4]; PO 2.0 mg/kg, read-out: AUC PO): 4.5 µM·h
clearance ([4]; iv 1.0 mg/kg): 15.3 mL/min/kg
bioavailability ([4]; iv 1.0 mg/kg, PO 2.0 mg/kg): 97%
AUC ([4]; iv 1.0 mg/kg, read-out: AUC iv): 2.5 µM·h
Vd ([4]; iv 1.0 mg/kg): 1.3 L/kg

COCCCOc1cc2c(cc1OC)-c1c(F)c(=O)c(C(=O)O)cn1C1[C@H]2OCC1(C)C (stereo partly shown) [Compound 7.2]
EC50 (HBsAg secretion; [5]): 90 nM

COCCCOc1cc2c(cc1OC)-c1cc(=O)c(C(=O)O)cn1C1CCCC21 (stereo not shown) [Compound 6.2, 10-methoxy-11-(3-methoxypropoxy)-7-oxo-1,2,3,3a,7,12b-hexahydrocyclopenta[c]pyrido[2,1-a]isoquinoline-6-carboxylic acid]
EC50 (HBsAg secretion; [6]): 5 nM

COCCCOc1cc2c(cc1OC)-c1cc(=O)c(C(=O)O)cn1C1C2CCCC1(C)C (single isomer, unassigned) [Compound 9.1, 11-methoxy-12-(3-methoxypropoxy)-4,4-dimethyl-8-oxo-2,3,4,4a,8,13b-hexahydro-1H-pyrido[1,2-f]phenanthridine-7-carboxylic acid]
EC50 (HBsAg secretion; [6]): 9 nM

COCCCOc1cc2c(cc1OC)-c1cc(=O)c(C(=O)O)cn1[C@H]1[C@@H]2COC1(C)C [Compound 8.1, (3aS,12bR)-10-methoxy-11-(3-methoxypropoxy)-3,3-dimethyl-7-oxo-3,3a,7,12b-tetrahydro-1H-furo[3,4-c]pyrido[2,1-a]isoquinoline-6-carboxylic acid]
EC50 (HBsAg secretion; [5]): 1 nM

COCCCOc1cc2c(cc1OC)-c1c(F)c(=O)c(C(=O)O)cn1[C@@H]1[C@H]2CCC1(C)C (racemic) [Compound 3.2]
EC50 (HBsAg secretion; [5]): 740 nM

COCCCOc1cc2c(cc1OC)-c1cc(=O)c(C(=O)O)cn1[C@H]1[C@H]2CCC1(C)C (racemic) [rac-2, 10-methoxy-11-(3-methoxypropoxy)-3,3-dimethyl-7-oxo-1,2,3,3a,7,12b-hexahydrocyclopenta[c]pyrido[2,1-a]isoquinoline-6-carboxylic acid]
EC50 (HBsAg secretion; [5]): 460 nM

COCCCOc1cc2c(cc1OC)-c1cc(=O)c(C(=O)O)cn1C1CCCC21 (stereo not shown) [Compound 6.1, 10-methoxy-11-(3-methoxypropoxy)-7-oxo-1,2,3,3a,7,12b-hexahydrocyclopenta[c]pyrido[2,1-a]isoquinoline-6-carboxylic acid]
EC50 (HBsAg secretion; [5]): 9 nM

COCCCOc1cc2c(cc1OC)-c1cc(=O)c(C(=O)O)cn1C1C2CCCC1(C)C (single isomer, unassigned) [Compound 9.2, 11-methoxy-12-(3-methoxypropoxy)-4,4-dimethyl-8-oxo-2,3,4,4a,8,13b-hexahydro-1H-pyrido[1,2-f]phenanthridine-7-carboxylic acid]
EC50 (HBsAg secretion; [6]): 303 nM

COCCCOc1cc2c(cc1OC)-c1cc(=O)c(C(=O)O)cn1[C@@H]1[C@H]2CCC1(C)C [Compound 1.2, (3aR,12bS)-10-methoxy-11-(3-methoxypropoxy)-3,3-dimethyl-7-oxo-1,2,3,3a,7,12b-hexahydrocyclopenta[c]pyrido[2,1-a]isoquinoline-6-carboxylic acid]
EC50 (HBsAg secretion; [5]): 13 nM

COCCCOc1cc2c(cc1OC)-c1c(F)c(=O)c(C(=O)O)cn1[C@H]1[C@@H]2CCC1(C)C [Compound 3.1, (3aS,12bR)-8-fluoro-10-methoxy-11-(3-methoxypropoxy)-3,3-dimethyl-7-oxo-1,2,3,3a,7,12b-hexahydrocyclopenta[c]pyrido[2,1-a]isoquinoline-6-carboxylic acid]
T1/2term. [1]: 3.8 h
Cmax ([1]; PO 2.0 mg/kg): 3000 nM
Tmax ([1]; PO 2.0 mg/kg): 0.5 h
AUC ([1]; PO 2.0 mg/kg, read-out: AUC PO): 9.5 µM·h
clearance ([1]; iv 1.0 mg/kg): 6.9 mL/min/kg
bioavailability ([1]; iv 1.0 mg/kg, PO 2.0 mg/kg): 87%
AUC ([1]; iv 1.0 mg/kg, read-out: AUC iv): 5.5 µM·h
Vd ([1]; iv 1.0 mg/kg): 1 L/kg
solubility at 24 h [2]: 1600 µM (≈ 713 µg/mL)
T1/2term. [3]: 7.2 h
Cmax ([3]; PO 1.0 mg/kg): 6200 nM
Tmax ([3]; PO 1.0 mg/kg): 1.5 h
AUC ([3]; PO 1.0 mg/kg, read-out: AUC PO): 26.7 µM·h
clearance ([3]; iv 0.5 mg/kg): 1.3 mL/min/kg
bioavailability ([3]; iv 0.5 mg/kg, PO 1.0 mg/kg): 96%
AUC ([3]; iv 0.5 mg/kg, read-out: AUC iv): 13.3 µM·h
Vd ([3]; iv 0.5 mg/kg): 0.6 L/kg
EC50 (HBsAg secretion; [5]): 0.3 nM
T1/2term. [4]: 9.2 h
Cmax ([4]; PO 2.0 mg/kg): 6500 nM
Tmax ([4]; PO 2.0 mg/kg): 0.5 h
AUC ([4]; PO 2.0 mg/kg, read-out: AUC PO): 19.6 µM·h
clearance ([4]; iv 1.0 mg/kg): 2.1 mL/min/kg
bioavailability ([4]; iv 1.0 mg/kg, PO 2.0 mg/kg): 57%
AUC ([4]; iv 1.0 mg/kg, read-out: AUC iv): 16.6 µM·h
Vd ([4]; iv 1.0 mg/kg): 0.6 L/kg
